# According to US8513219B2, “Substituted phosphonates and their use in decreasing amyloid aggregates” (Queen Mary & Westfield College, University of London, priority 2007, dated 2013):
# Where two headings read alike, the source gives them in different places.
# Key:
# [1] = tested on: H4 cells (human neuroblastoma cell line)
# [2] = tested on: intracellular amyloid in H4 cells; experiment: intracellular distribution of amyloid in H4 cells (6E10 immunofluorescence); assay type: cell-based, human; conditions: 1 μM, 5 days incubation, single dose
# β-amyloid plaques = tested on: β-amyloid plaques; set-up: species or system APP and APP/Tau transgenic mice; conditions: mouse, in vivo
# [3] = tested on: amyloid accumulation in H4 cells; experiment: H4 cell amyloid accumulation (6E10 antibody, HRP/OPD absorbance); assay type: cell-based, human
# [4] = tested on: L929 immortalised fibroblast cell line; experiment: MTT colorimetric toxicity assay in L929 fibroblast cell line; assay type: cell-based; conditions: L929, 0.3 nM to 1 μM, up to 24 h exposure
# Experimental: A first assessment of the potential toxicity of the substituted phosphonates was carried out in a non-neuronal cell line, using a tetrazolium salt (MTT) colorimetric assay, based on the method described by Mossman (1983), which gives a reflection of mitochondrial activity and cell integrity. The MTT [3-(4,5-dimethylthiazol-2-yl)-2,5-diphenyltetrazolium bromide] assay is based on the ability of a mitochondrial dehydrogenase enzyme from viable cells to cleave the tetrazolium rings of the pale yellow MTT and form dark blue formazan crystals which cannot cross cell membranes. The result is that healthy cells will accumulate more of the blue formazan crystals. […] They were then incubated for 2 h after addition of MTT (1 mg/ml) and the absorbance was read at 570 nm. […] The toxicity of the reference compound clioquinol (0.3 nM to 1 μM) was assessed under the same conditions, for comparison.
# A first assessment of toxicity of the substituted phosphonates was carried out in a non-neuronal cell line, using a tetrazolium salt (MTT) colorimetric assay, based on the method described by Mossman (1983), which gives a reflection of mitochondrial activity and cell integrity (FIGS. 6 and 7). The toxicity of the reference compound clioquinol (0.3 nM to 1 μM) was assessed under the same conditions, for comparison.
# [5] = H4 cells, 1 μM, average of 2-3 experiments
SMILES,"cell survival (% controls), 5 day repeated doses ([1]; 5 days, 1 μM)","cell survival (% controls), 5 day single dose ([1]; 5 days, 1 μM)",intracellular amyloid labelling in H4 cells [2],amyloid plaque load in brain (β-amyloid plaques),"accumulation of amyloid in H4 cells ([3]; 1 μM, 5 days)","amyloid reduction (% controls), 5 day repeated doses [3, 5]","amyloid reduction (% controls), 5 day single dose [3, 5]",toxicity as reflected in cell viability (MTT) [4],"cell survival (% controls), 5 day repeated doses [1]","cell survival (% controls), 5 day single dose [1]","amyloid reduction (% controls), 5 day repeated doses [3]","amyloid reduction (% controls), 5 day single dose [3]",reduction of cell viability [1]
"Oc1c(I)cc(Cl)c2cccnc12 [Clioquinol, reference compound]",96 % controls,99 % controls,"reduced this intracellular accumulation in some of the cells, but brightly labelled areas could still be found","apparent decreased plaque load, and especially a reduced load of large aggregates",decreases the accumulation of amyloid,76 % controls,64 % controls,neither clioquinol nor any of the substituted phosphonates screened showed any toxicity,–,–,–,–,–
"CCOP(=O)(COc1ccccc1-c1nc2ccccc2s1)OCC [Compound 14, Diethyl 2-(2-benzthiazolyl)phenoxymethylphosphonate]",–,–,–,–,–,–,–,–,110 % controls,100 % controls,83 % controls,100 % controls,–
"CCOP(=O)(COc1ccc2c(c1)[nH]c1ccccc12)OCC [Compound 17, Diethyl-2-carbazolyloxymethylphosphonate]",–,–,–,–,–,–,–,–,102 % controls,97 % controls,62 % controls,37 % controls,–
"O=P([O-])([O-])Cn1c2ccccc2c2ccccc21.[Na+].[Na+] [Compound 20, Disodium N-carbazolylmethylphosphonate]",–,–,–,–,–,–,–,–,72 % controls,88 % controls,66 % controls,11 % controls,28%
"CCOP(=O)(COc1ccc(NC(C)=O)cc1)OCC [Compound 25, Diethyl 4-acetamidophenoxy methylphosphonate]",–,–,–,–,–,–,–,–,97 % controls,98 % controls,62 % controls,24 % controls,–
